Experimental data reported in ChEMBL document CHEMBL1201862, “PubChem BioAssay data set” (2004).
The source made the active and inactive calls.

Tests used:
[1] = biological target: T1, Adenosylmethionine-8-amino-7-oxononanoate aminotransferase (Mycobacterium tuberculosis, UniProt P9WQ81); experiment: Mycobacterium tuberculosis BioA enzyme inhibitor Measured in Biochemical System Using Plate Reader - 2163-02_Inhibitor_Dose_CherryPick_Activity.; format: functional, Mycobacterium tuberculosis UT205
T1 sequence (P9WQ81 whole entry): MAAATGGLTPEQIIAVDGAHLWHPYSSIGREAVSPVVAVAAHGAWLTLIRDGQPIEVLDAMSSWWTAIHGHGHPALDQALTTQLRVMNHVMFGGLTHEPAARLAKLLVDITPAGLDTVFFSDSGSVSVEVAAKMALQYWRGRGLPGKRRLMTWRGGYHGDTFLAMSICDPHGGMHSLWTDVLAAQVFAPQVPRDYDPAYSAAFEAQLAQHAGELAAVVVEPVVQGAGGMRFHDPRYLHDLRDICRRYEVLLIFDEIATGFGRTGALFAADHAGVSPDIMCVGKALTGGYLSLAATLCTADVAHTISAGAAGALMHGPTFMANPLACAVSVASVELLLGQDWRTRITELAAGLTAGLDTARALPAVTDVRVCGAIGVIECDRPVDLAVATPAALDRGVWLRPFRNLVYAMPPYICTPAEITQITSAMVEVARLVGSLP

[2] = T. cruzi growth inhibition in host cells, dose response, cell-based, plate reader, dry powder, set 2 (AID 652275); format: functional
[3] = biological target: T2, Endoribonuclease toxin MazF (Escherichia coli K-12, UniProt P0AE70); experiment: activation of MazEF endoribonuclease cleavage – biochemical, fluorescence, single-stranded RNA substrate, uHTS hits, dose response (AID 588481); format: functional
T2 sequence (P0AE70 whole entry): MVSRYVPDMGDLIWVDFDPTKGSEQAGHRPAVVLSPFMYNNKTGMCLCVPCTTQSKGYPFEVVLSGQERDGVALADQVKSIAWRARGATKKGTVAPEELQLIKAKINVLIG

[4] = biological target: T2, Endoribonuclease toxin MazF; experiment: substrate-only fluorescence increase artefacts – biochemical, single-stranded RNase substrate, counter-screen for MazEF activator project, dose response (AID 588502); format: functional
[5] = system: HEK293; experiment: EBV LMP1 TES2 canonical NF-kB signalling blockers – cell-based, HEK293, luciferase, cherry-pick, dose response (AID 588343); format: functional; conditions: Homo sapiens
[6] = Trypanosoma cruzi growth suppression in host cells – NIH3T3 host cells, beta-gal luminescence, confirmation (AID 2044); format: functional, cell-based;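 also: intracellular parasites grown in NIH/3T3 mouse fibroblasts as host cells; luminescent beta-galactosidase reporter signal from transgenic T. cruzi replicating inside host cells; inhibitors lower the luminescence signal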
[7] = NIH3T3 cell viability loss – ATP luminescence, mouse fibroblasts, counter-screen, dose response (AID 2010); format: functional, cell-based;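 also: cells exposed to compound for about 90 hours before reading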
[8] = system: INS1; experiment: INS-1E survival protection against cytokine death – cell-based, luminescence, retest, dose response (AID 449756); format: functional; conditions: Rattus norvegicus;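 also: cell death triggered by IL-1 beta plus TNF-alpha plus IFN-gamma mixture; protective hits raise ATP signal compared with cytokine alone wells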
[9] = blockers of HIV-1 envelope-mediated cell-cell fusion – cherry-pick, dose response (AID 652057); format: functional, cell-based
[10] = viability loss in CEM21 cells – cell-based, CellTiter-Glo luminescence, cherry-picked, cytotoxicity control for viral fusion inhibitor project, dose response (AID 652042); format: functional;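 also: potency for signal decrease meaning cytotoxicity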
[11] = HIV-1 AD8 envelope cell-cell fusion blockers – cherry-pick, dose response (AID 652062); format: functional, cell-based;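 also: luciferase signal from cell-cell fusion driven by HIV-1 clade B AD8 Env; potency is for inhibitors of fusion seen as a drop in luminescence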
[12] = system: Streptococcus sp. 'group A'; experiment: Streptococcus pyogenes SK(-)GAS viability under kanamycin – luminescence, BacTiterGlo, confirmation, counter-screen for streptokinase expression inhibitor project, dose response (AID 1900); format: functional, organism-based
[13] = system: Streptococcus; experiment: GAS UMAA2166 growth inhibition – luminescence, BacTiterGlo, counter-screen for streptokinase expression inhibitor project, dose response (AID 1915); format: functional, organism-based;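 also: potency for reduction of bacterial viability or growth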
[14] = system: H9c2; experiment: cells; format: functional, cell-based; conditions: Rattus norvegicus, H9c2, Myocardium;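 also: confirmatory concentration-response retest of ultra-high-throughput screening hits for modulation of myocardial damage; cell death induced by hydrogen peroxide oxidative stress; compound pretreatment for 60 min then peroxide exposure for 2 h; potency is for protecting the cells against peroxide damage rather than for killing them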
[15] = reduction of Shn3 3'UTR-driven luciferase in osteoblasts – cell-based, Clone20 osteoblasts, firefly luciferase, cherry-picked, dose response (AID 624132); format: functional;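 also: firefly luciferase luminescence from reporter carrying the Shn3 3'UTR in osteoblasts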
[16] = loss of viability in HepG2 cells – cell-based, CellTiter-Glo, cherry-picked, cytotoxicity control for Shn3 inhibitor project, dose response (AID 624134); format: functional
[17] = non-specific 3'UTR reporter inhibition in Clone20-Shn3RL – cell-based, Renilla luciferase, cherry-picked, counter-screen for Shn3 inhibitor project, dose response (AID 624133); format: functional
[18] = biological target: T3, Replicative DNA helicase DnaB (Mycobacterium tuberculosis, UniProt P9WMR3); experiment: DnaB intein splicing inhibitors, dose response, biochemical, cell-free fluorescence (AID 449749); format: functional
T3 sequence (P9WMR3 whole entry): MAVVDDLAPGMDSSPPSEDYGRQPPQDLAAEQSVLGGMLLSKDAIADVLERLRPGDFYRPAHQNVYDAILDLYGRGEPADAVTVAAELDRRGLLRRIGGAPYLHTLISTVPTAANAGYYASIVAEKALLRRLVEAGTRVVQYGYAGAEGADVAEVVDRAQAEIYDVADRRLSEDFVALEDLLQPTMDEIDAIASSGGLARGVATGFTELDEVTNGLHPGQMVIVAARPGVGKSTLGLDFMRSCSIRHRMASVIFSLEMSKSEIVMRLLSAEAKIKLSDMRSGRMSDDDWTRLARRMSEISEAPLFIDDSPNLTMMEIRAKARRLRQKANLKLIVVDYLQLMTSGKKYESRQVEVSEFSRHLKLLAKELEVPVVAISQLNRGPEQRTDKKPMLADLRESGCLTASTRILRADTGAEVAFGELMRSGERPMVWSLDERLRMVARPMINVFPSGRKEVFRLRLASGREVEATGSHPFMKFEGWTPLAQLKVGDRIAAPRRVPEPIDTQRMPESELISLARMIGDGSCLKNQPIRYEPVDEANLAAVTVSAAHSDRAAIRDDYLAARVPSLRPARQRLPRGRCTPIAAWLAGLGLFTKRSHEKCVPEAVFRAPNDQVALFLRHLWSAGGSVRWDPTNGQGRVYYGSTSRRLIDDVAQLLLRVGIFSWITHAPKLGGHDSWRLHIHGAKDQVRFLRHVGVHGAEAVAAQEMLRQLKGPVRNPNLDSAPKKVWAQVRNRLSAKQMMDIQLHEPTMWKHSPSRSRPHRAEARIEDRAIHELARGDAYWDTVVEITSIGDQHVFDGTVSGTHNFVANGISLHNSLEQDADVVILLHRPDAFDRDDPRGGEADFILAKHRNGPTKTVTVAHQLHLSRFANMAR

[19] = biological target: T4, Protein RecA (Mycobacterium tuberculosis, UniProt P9WHJ3); experiment: Fluorescence Cell-Free Homogeneous Dose Retest to Identify Inhibitors of RecA-Intein Splicing Activity. [Related pubchem assays (depositor defined):AID2097, AID2223, AID489010, AID492950]; format: functional
T4 sequence (P9WHJ3 whole entry): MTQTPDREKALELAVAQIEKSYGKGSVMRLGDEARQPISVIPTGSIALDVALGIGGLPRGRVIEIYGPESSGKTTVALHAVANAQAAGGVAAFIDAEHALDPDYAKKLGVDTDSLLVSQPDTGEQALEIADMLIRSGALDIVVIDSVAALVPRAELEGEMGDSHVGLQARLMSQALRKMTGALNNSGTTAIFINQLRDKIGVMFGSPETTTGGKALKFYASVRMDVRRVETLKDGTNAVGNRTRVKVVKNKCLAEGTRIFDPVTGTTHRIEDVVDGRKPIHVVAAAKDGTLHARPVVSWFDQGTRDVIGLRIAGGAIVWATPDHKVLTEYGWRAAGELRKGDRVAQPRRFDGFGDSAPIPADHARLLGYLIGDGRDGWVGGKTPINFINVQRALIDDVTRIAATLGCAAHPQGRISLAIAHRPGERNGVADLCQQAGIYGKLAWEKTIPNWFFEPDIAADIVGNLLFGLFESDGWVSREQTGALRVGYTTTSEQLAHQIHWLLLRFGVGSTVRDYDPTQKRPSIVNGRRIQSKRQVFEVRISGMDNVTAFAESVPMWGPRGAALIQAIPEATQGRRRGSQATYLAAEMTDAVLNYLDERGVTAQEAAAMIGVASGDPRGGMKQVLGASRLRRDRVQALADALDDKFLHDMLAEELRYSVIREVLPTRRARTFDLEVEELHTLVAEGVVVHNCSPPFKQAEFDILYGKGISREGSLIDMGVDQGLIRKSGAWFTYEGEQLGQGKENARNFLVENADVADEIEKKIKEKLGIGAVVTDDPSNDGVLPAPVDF

[20] = system: Vero; experiment: cells; format: functional; conditions: Chlorocebus sabaeus
[21] = system: Cryptococcus neoformans; experiment: PubChem AID 686997; format: functional, organism-based; conditions: Cryptococcus neoformans

With `Clc1ccc(CSc2nnc(-c3cccnc3)o2)cc1` the AC50 [1] was 4.13 µM (active).

For `CCCCN1C(=O)c2ccc(C(=O)Nc3cccnc3)cc2C1=O`, the AC50 [1] was 0.544 µM (active).

For `CC(C)N1C[C@@H](CN(C)Cc2ccc(Cl)cc2)Oc2c(C(=O)Nc3ccncc3)cccc2C1=O`, the AC50 [2] was 0.00079 µM (active).

With `C=CCSC1=N/C(=C\c2cc(OC)c3c(c2)OCO3)C(=O)S1` the EC50 [3] was 20.7 µM (inactive) and the EC50 [4] was 64.5 µM (inactive).

With `CCCN(CCC)c1[nH]cnc2ncnc1-2` the AC50 [5] was 21.2 µM (active).

In the case of `O=C(OCCOc1cccc(Cl)c1)c1cc(S(=O)(=O)N2CCCCC2)ccc1N1CCOCC1`, the EC50 [6] was 3.05 µM (active), the EC50 [7] was > 30 µM (not active) and the AC50 [8] was 4.81 µM (active). The AC50 [9] was 48.3 µM (active), the AC50 [10] was 52.3 µM (active) and the AC50 [11] was 22.1 µM (active).

With `COc1ccccc1CN(C)C[C@H]1Oc2c(NC(=O)c3ccncc3)cccc2C(=O)N([C@@H](C)CO)C[C@@H]1C` the AC50 [2] was 0.078 µM (active).

For `O=C(Nc1ccc(F)c(Cl)c1)C1CCCN(c2cnccn2)C1` (configuration not stated), the EC50 [6] was 0.39 µM (active), the EC50 [7] was > 60 µM (not active) and the AC50 [1] was 3.25 µM (active).

For `CCCN(CCC)S(=O)(=O)c1ccc(C(=O)Nc2nnc(-c3cc(OC)cc(OC)c3)o2)cc1`, the EC50 [12] was 0.12 µM (active), the EC50 [6] was 0.965 µM (active) and the EC50 [7] was 3.92 µM (active). The EC50 [13] was 0.43 µM (active), the AC50 [5] was 2.51 µM (active) and the IC50 [14] was > 79 µM (inactive). For the same molecule, the AC50 [15] was 2.64 µM (active), the AC50 [16] was 1.33 µM (active) and the AC50 [17] was 3.45 µM (active).

With `Cc1ccccc1N(Cc1cc(O)nc2ccccc12)C(=O)CCl` the AC50 [18] was 50.5 µM (active), the EC50 [19] was 6.26 µM (active) and the CC50 [20] was 17.5 µM (active).

With `CN1/C(=C/C(=O)c2ccc(Cl)cc2)Sc2cc3c(cc21)OCO3` the EC50 [3] was > 99 µM (inactive) and the EC50 [4] was 62.3 µM (inactive).

For `COc1cccc(NC(=S)N2CCC(Cc3ccccc3)CC2)c1`, the AC50 [21] was 36.8 µM (active).

For `Nc1nc(N)c2cc(S(=O)(=O)c3ccc4ccccc4c3)ccc2n1`, the EC50 [3] was > 99 µM (inactive), the EC50 [4] was > 99 µM (inactive) and the AC50 [15] was 3.37 µM (active). The AC50 [16] was 2.82 µM (active).

With `Cc1ccc(C)c(Nc2nc3c(S(=O)(=O)c4ccccc4)nnn3c3ccccc23)c1` the EC50 [3] was > 99 µM (inactive) and the EC50 [4] was > 99 µM (inactive).
